Here are results for six compounds from patent publication US8632749B2, “Two photon tracer, method for the preparation thereof and the use thereof in screening anticancer agents” (SNU R&DB Foundation, priority 2009, dated 2014).

The nature of data set [1]: One-photon absorption/emission spectra and fluorescence quantum yield. It counts as physicochemical. To be noted: for Φ, fluorescence quantum yield: ±15%; for pH sensitivity of fluorescence: biologically relevant pH range. As for the experimental part: Absorption spectra were recorded on a Hewlett-Packard 8453 diode array spectrophotometer, and fluorescence spectra were obtained with Amico-Bowman series 2 luminescence spectrometer with a 1-cm standard quartz cell. The fluorescence quantum yield was determined by using Coumarin 307 and Rhodamine B as the reference.

A short description of data set [2]: Measurement of two-photon cross section (TPEF method). It counts as physicochemical. To be noted: for Φδmax, two-photon action cross-section / λmax of the two-photon absorption spectrum / δmax, peak two-photon cross-section: PBS buffer; for δmax, peak two-photon cross-section: ±15%. As to the method:
The two-photon cross section (δ) was determined using the femto second (fs) fluorescence measurement technique as described previously. AG1, AG2, Cy3-Glc-α, and 2-NBDG were dissolved in 30 mM PBC buffer (137 mM NaCl, 3 mM KCl, 10 mM Na2HPO4, 2 mM KH2PO4, pH 7.4) at a concentration of 5.0×10^−6 M and then the two-photon induced fluorescence intensity was measured at 740-940 nm by using fluorescein (8.0×10^−5 M, pH=11) as the reference, whose two-photon property has already been well characterized. The intensities of the two photon induced fluorescence spectra of the reference and sample emitted at the same excitation wavelength were determined.
The TPA cross section was calculated according to Eq. 1,
The results are shown in FIG. 1 and the above-described Table 1.

Data set [3] relates to A549 cells. Description: Tracer uptake by A549 cells, TPM imaging (optimum concentration). Conditions: for Cell death in A549 cells: 100 μM probe, 30 min; for Uptake rate (time) in A549 cells: A549 cells labeled with tracer. It counts as cell-based. As to the method: (§1) A549 human lung carcinoma cells, HeLa human cervical carcinoma cells, NIH/3T3 murine fibroblast cells, and HEK293 human embryonic kidney cells were obtained from American Type Culture Collection (ATCC, Manassas, Va., USA). A549 cells were cultured in RPMI 1640 (WelGene) supplemented with heat-inactivated 10% FBS (WelGene), penicillin (100 units/mL), and streptomycin (100 μg/mL).
For labeling, the growth medium was removed and replaced with serum-free RPMI 1640 (without D-glucose) (United Search Partners, Austin, Tex., USA).
The cells were treated and incubated with the required concentration of a tracker at 37° C. for 10 min.
Thereafter, the cells were washed three times with phosphate buffered saline (PBS; Gibco) and then imaged.
(§2) For comparison of the relative uptake of AG1 and AG2 per unit cell, the TPEF intensities from regions of interest were chosen without bias from among 40-60 cells as determined by the photomultiplier tube (PMT) and the data were digitalized using Histogram (a program for data analysis).
In determine the optimum concentration for the uptake experiment, TPM images of A549 cells labeled for 30 min with 6, 12.5, 25, 50, and 100 μM of AG1 and AG2 were compared. The image appeared brighter as the probe concentration was increased up to 50 μM; however, at higher concentrations than this, cell death was observed.
Moreover, the uptake rate was faster (600 vs 800 s) and the TPM image was brighter when the cells were labeled with AG2 than when they were treated with AG1 (FIG. 3). Therefore, 50 μM of AG2 was used for the uptake experiments.

The subject of data set [4] is Human colon cancer tissue and normal tissue. Description: TPM imaging of AG2 uptake in human colon normal and cancer tissue slices. As for the experimental part: In the present invention, an additional assessment was made of the utility of AG2 in tissue imaging for the diagnosis of colon cancer. In this regard, the images of normal- and cancer-tissue slices from colon-cancer patients were employed. […] The tissues were incubated in artificial cerebrospinal fluid (ACSF) for 4 h at 37° C. in the absence and presence of taxol (50 μM), after which AG2 uptake was monitored with TPM by following the change in TPEF at a depth of 100 μm.
Human colon cancer tissue and normal tissue were obtained from colon cancer patients by conducting colonoscopic examinations and taking samples.
Normal tissues, cancerous tissue, and cancerous tissue containing 50 μM taxol were incubated in artificial cerebrospinal fluid (ACSF) bubbled with 95% O2 and 5% CO2 for 4 hrs at 37° C. The tissues were then washed three times with ACSF, transferred to glass-bottomed dishes (MatTek), added with 50 μM AG2, and observed by TPM.
To determine whether the relative uptake was affected by incubation in ACSF, the same experiment was conducted with normal tissue and colon cancerous tissue obtained immediately after the colonoscopic biopsy.

For data set [5], the system named is A549 cells. To be noted: 0.049 µM.
Data set [6] relates to A549 cells. As to the kind of experiment: Effect of anticancer agents on AG2 uptake by A549 cells.
The subject of data set [7] is A549 cells. Description: Competition experiment for uptake pathway. It counts as cell-based, human. To be noted: for Reduction of AG2 fluorescence intensity in A549 cells: AG2 50 μM, 10 min. As to the method:
To determine whether the intracellular uptake pathway of AG2 is relevant to that of D-glucose, a competition experiment was conducted.
To this end, A549 cells were incubated with AG2 (50 μM) for 10 min in the presence of 0, 10, and 50 mM D-glucose, and 50 mM L-glucose, and relative AG2 uptake was determined by TPM.

In data set [8] the test system is A549 cells. Description: Viability of A549 cells with CCK-8 kit. It counts as cell-based, human. Conditions: 50 μM, 10 min. As for the experimental part:
FIG. 7: Viability of A549 cells in the presence of AG2 as measured by using CCK-8 kit. The cells were incubated with 50 μM AG2 for 10 min.
In order to confirm that the tracer couldn't affect the viability of A549 cells in the incubation condition, a CCK-8 kit (Cell Counting Kit-8, Dojindo, Japan) was used according to the manufacturer's protocol.

In data set [9] the test system is A549, HeLa, HEK293 and NIH/3T3 cells. Description: Relative AG2 uptake by cancer and normal cell lines (TPM). It is filed as cell-based. Conditions: A549, HeLa vs HEK293, NIH/3T3.
Source text: In order to assess whether AG2 is selectively taken up by cancer cells, the efficiencies of AG2 uptake by A549 (lung carcinoma cell line), HeLa (cervical cancer cell line), HEK293 (human embryonic kidney 293 cell line), and NIH/3T3 (murine fibroblast cell line) cells were compared. […] Therefore, AG2 can be used for visualizing glucose uptake in living cells by TPM, without subjecting the cells to glucose starvation.
as §1
NIH/3T3 cells, HeLa cells, and HEK293 cells were cultured in DMEM (WelGene) supplemented with heat-inactivated 10% FBS (WelGene), penicillin (100 units/mL), and streptomycin (100 μg/mL). All the cell lines were maintained in a humidified atmosphere of 5% CO2 and 95% air at 37° C. […]
as §2

The conditions of data set [10]: from The Handbook (Molecular Probes); cited from earlier work.

Where two headings read alike, the source gives them in different places.

As for `CC(=O)c1ccc2cc(N(C)CC(=O)NCCOCCOCCNCCOC3OC(CO)C(O)C(O)C3O)ccc2c1` (centres unmarked) [AG1], in data set [1] (DMF (ETN 0.386)), the “λ(1)max, one-photon absorption maximum” value was 366 nm; the “λflmax, one-photon emission maximum” value was found to be 451 nm; the “Φ, fluorescence quantum yield” value worked out at 1.00. In addition, in data set [1] (Dioxane (ETN 0.164)), the “λ(1)max, one-photon absorption maximum” value came out at 360 nm; the “λflmax, one-photon emission maximum” value is given as 434 nm; the “Φ, fluorescence quantum yield” value was 0.59. Moreover, in data set [1] (EtOH (ETN 0.654)), the “λ(1)max, one-photon absorption maximum” value is reported as 364 nm; the “λflmax, one-photon emission maximum” value was 479 nm; the “Φ, fluorescence quantum yield” value was found to be 1.00. In data set [1] (H2O (ETN 1.00)), the “λ(1)max, one-photon absorption maximum” value came to 373 nm; the “λflmax, one-photon emission maximum” value is recorded as 501 nm; the “Φ, fluorescence quantum yield” value was 0.90. Also, in data set [1] (PBS buffer), the “λ(1)max, one-photon absorption maximum” value was 373 nm; the “λflmax, one-photon emission maximum” value is 501 nm; the “Φ, fluorescence quantum yield” value amounted to 0.90. The “pH sensitivity of fluorescence” value in data set [1] is “pH insensitive”. Moreover, in data set [2], the “Φδmax, two-photon action cross-section” value came to 86 GM; the “λmax of the two-photon absorption spectrum” value worked out at 780 nm; the “δmax, peak two-photon cross-section” value came to 95 GM. Also, the “Φδ value from TP action spectrum” value in data set [2] (at 780 nm) is recorded as “approximately 90 GM”. For the same compound, in data set [3], the “Cell death in A549 cells” value is recorded as “some cell death was observed” and the “Uptake rate (time) in A549 cells” value was found to be 800 s.

On to `CC(=O)O[C@H]1C(=O)[C@@]2(C)[C@H]([C@H](OC(=O)c3ccccc3)[C@]3(O)C[C@H](OC(=O)[C@H](O)[C@@H](NC(=O)c4ccccc4)c4ccccc4)C(C)=C1C3(C)C)[C@]1(OC(C)=O)CO[C@@H]1C[C@@H]2O` [Taxol, taxol], for which the “AG2 uptake of cancer tissue pretreated with agent” value in [4] (colon cancer tissue, agent 50 μM for 4 hrs in ACSF, depth 100 μm) is “much slower AG2 uptake than the untreated one”. Besides, the “AG2 uptake by A549” value came to 89.6% in [5] (6 h); 69.5% in [5] (12 h); 96.7% in [6] (agent 49 nM (second line, r8), after 6 h); 81.8% in data set [6] (agent 49 nM (second line, r8), after 12 h); 69.5% in [6] (agent 9.8 μM, after 6 h); 50.7% in data set [6] (agent 9.8 μM, after 12 h). Further, the “Cellular uptake of AG2 versus incubation time with agent” value in [6] (A549 cells incubated 1, 3, 6, 12, 24 h with agent) is recorded as “lower with longer incubation times”.

Take `CC(=O)c1ccc2cc(N(C)CC(=O)N3CCN(CCOC4OC(CO)C(O)C(O)C4O)CC3)ccc2c1` (centres unmarked) [AG2]: in data set [4] (colon tissue slices, 50 μM AG2, depth 100 μm), the “AG2 uptake in cancer tissue versus normal tissue” value is given as “much faster than in the normal tissue”. In addition, the “Reduction of AG2 fluorescence intensity in A549 cells” value in [7] (medium with 10 mM D-glucose vs glucose-depleted medium) is reported as “about 16%”. For the same compound, the “Reduction of AG2 fluorescence intensity in A549 cells” value in data set [7] (medium with 50 mM D-glucose vs glucose-depleted medium) was around 74%. Besides, the “AG2 fluorescence intensity in A549 cells” value in data set [7] (medium with 50 mM L-glucose) is listed as “not affected”. For the same compound, the “AG2 uptake by A549 cells” value in data set [7] (presence of 55 mM D-/L-alanine) is listed as “not influenced”. Besides, in data set [8], the “Effect on viability of cells (CCK8 kit)” value was “negligible toxicity”. In addition, the “Efficiency of AG2 uptake by cell lines” value in data set [9] was “most efficient in A549 and HeLa cells, followed by HEK293 and NIH/3T3 cells”. Also, in data set [1] (DMF (ETN 0.386)), the “λ(1)max, one-photon absorption maximum” value came out at 369 nm; the “λflmax, one-photon emission maximum” value was determined as 449 nm; the “Φ, fluorescence quantum yield” value is listed as 1.00. In [1] (Dioxane (ETN 0.164)), the “λ(1)max, one-photon absorption maximum” value was found to be 362 nm; the “λflmax, one-photon emission maximum” value is on record as 425 nm; the “Φ, fluorescence quantum yield” value worked out at 0.72. In addition, in data set [1] (EtOH (ETN 0.654)), the “λ(1)max, one-photon absorption maximum” value turned out to be 370 nm; the “λflmax, one-photon emission maximum” value was determined as 480 nm; the “Φ, fluorescence quantum yield” value is 0.97. Further, in [1] (H2O (ETN 1.00)), the “λ(1)max, one-photon absorption maximum” value is given as 375 nm; the “λflmax, one-photon emission maximum” value worked out at 501 nm; the “Φ, fluorescence quantum yield” value amounted to 0.56. For the same compound, in [1] (PBS buffer), the “λ(1)max, one-photon absorption maximum” value is recorded as 375 nm; the “λflmax, one-photon emission maximum” value is reported as 501 nm; the “Φ, fluorescence quantum yield” value is 0.56. Also, in data set [1], the “pH sensitivity of fluorescence” value is listed as “pH insensitive”. In addition, in data set [2], the “Φδmax, two-photon action cross-section” value is reported as 88 GM; the “λmax of the two-photon absorption spectrum” value turned out to be 780 nm; the “δmax, peak two-photon cross-section” value is given as 155 GM. In data set [3], the “Cell death in A549 cells” value is reported as “some cell death was observed” and the “Uptake rate (time) in A549 cells” value stood at 600 s.

Turning to `O=[N+]([O-])c1ccc(NC2C(O)OC(CO)C(O)C2O)c2nonc12` [2-NBDG, 2-[N-(7-nitrobenz-2-oxa-1,3-diazol-4-yl)-amino]-2-deoxy-D-glucose], in data set [10], the “λ(1)max, one-photon absorption maximum” value is 465 nm and the “λflmax, one-photon emission maximum” value is 540 nm.

With `COc1ccc(C[C@@H](O)c2cc(OC)c(OC)c(OC)c2)cc1O` [Combrestastatin, combretastatin], the “AG2 uptake by A549” value in data set [6] (agent 2 μM, after 6 h) was 70.2%; in data set [6] (agent 2 μM, after 12 h) it was 53.2%.

Take “cyanine-3-linked O-1-glycosylated glucose [Cy3-Glc-α, reference compound]”: in [1] (PBS buffer), the “λ(1)max, one-photon absorption maximum” value amounted to 545 nm; the “λflmax, one-photon emission maximum” value was found to be 555 nm; the “Φ, fluorescence quantum yield” value stood at 0.01.
